Experimental data published in patent US11938110B2, “Use of verapamil for the treatment of SARS-Cov-2 induced COVID-19” (priority 2020, dated 2024).
Structures can show the parent of a compound that is named as a salt.

Experiments:
[1] = test system: COVID-19 patients with hypertension; conditions: oral administration; cited from earlier work
[2] = test system: SARS-COV-2 (USA-WA1/2020); conditions: Huh7 cells, MOI 0.1, 6.25, 12.5, 25 and 50 uM, compared to DMSO, 48 hours after infection
[3] = test system: Huh7 cells
[4] = test system: patients with Chronic obstructive pulmonary disease (COPD); conditions: nasal spray

Structure (SMILES) | case fatality rate of patients with hypertension [1] | viral RNA in the supernatant [2] | toxicity against Huh7 cells [3] | blood oxygen pressure [4] | correction of blood pH [4] | oxygen saturation after inhalation ([4]; after inhalation) | oxygen saturation before inhalation ([4]; baseline)
CCOC(=O)C1=C(COCCN)NC(C)=C(C(=O)OC)C1c1ccccc1Cl (stereo not shown) [amlodipine besylate] | distinctly reduced |  |  |  |  |  | 
COc1ccc(CCN(C)CCCC(C#N)(c2ccc(OC)c(OC)c2)C(C)C)cc1OC (stereo not shown) [verapamil hydrochloride] |  | dose-dependent reduction | no significant toxicity | improved | improved | 95.75±14.57 | 91.2±12.15
